Tested on: LNCaP cells having the androgen receptor
Experiment: Androgen receptor inhibition assay (LNCaP cell viability, WST-1)
Details: Homo sapiens, 48 h, read-out: Cell viability (%)
Description: The human prostate cancer cell line LNCaP cells were acquired from the American Type Culture Collection (Manassas, Va., USA) and cultured for 24 hours in RPMI 1640 medium containing 10% fetal bovine serum (FBS) and 2 mM 1-glutamine in an incubator maintained at 5% CO2 and 37° C.
Cell viability of the cultured cells was measured using the WST-1 reagent.

## C[C@]12CCC(=O)C[C@@H]1CC[C@@H]1[C@@H]2CC[C@]2(C)[C@@H](O)CC[C@@H]12 [DHT, dihydrotestosterone]
  viability at 0.001 µM: 119%
